Legend:
Assay in all cases: relative viability (nuclei count vs DMSO), 5 days (fraction); higher = more cells survive
[1] = tested on: EMC-BAC-2
In short: (§1)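 Relative viability divides the nuclei count in treated wells by that in vehicle wells. Lung cancer cell lines were seeded in 1536-well plates, dosed by pin tool the next day, and fixed and stained after 5 days in one step with final 0.05% Triton X-100, 1% formaldehyde and 1 ug/ml Hoechst. Dosing was a single drug or a fixed anchor-drug dose plus five library-drug doses (not always all listed) in √10 steps, and values are medians of duplicate plates imaged at 4×.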

[2] = tested on: EPLC-272H
In short: as §1

[3] = tested on: H3255
In short: as §1

[4] = tested on: HOP-62
In short: as §1

[5] = tested on: LCLC-97TM1
In short: as §1

[6] = tested on: LXF-289
In short: as §1

[7] = tested on: NCI-H1650
In short: as §1

[8] = tested on: NCI-H1915
In short: as §1

[9] = tested on: NCI-H1993
In short: as §1

[10] = tested on: NCI-H2009
In short: as §1

[11] = tested on: NCI-H2023
In short: as §1

[12] = tested on: NCI-H2085
In short: as §1

[13] = tested on: NCI-H2126
In short: as §1

[14] = tested on: NCI-H2342
In short: as §1

[15] = tested on: NCI-H2347
In short: as §1

[16] = tested on: NCI-H322M
In short: as §1

[17] = tested on: NCI-H647
In short: as §1

[18] = tested on: NCI-H661
In short: as §1

[19] = tested on: NCI-H727
In short: as §1

[20] = tested on: PC-14
In short: as §1

[21] = tested on: SK-LU-1
In short: as §1

[22] = tested on: SW 1573
In short: as §1

CC1(C)CCC(c2ccc(Cl)cc2)=C(CN2CCN(c3ccc(C(=O)NS(=O)(=O)c4ccc(N[C@H](CCN5CCOCC5)CSc5ccccc5)c(S(=O)(=O)C(F)(F)F)c4)cc3)CC2)C1 [Navitoclax] + Cc1cc(Nc2cc(N3CCN(C)CC3)nc(Sc3ccc(NC(=O)C4CC4)cc3)n2)n[nH]1 [Tozasertib] (partner 0.1 µM)
relative viability ([1]; first compound 0.005 µM): 0.273
relative viability ([1]; first compound 0.01581 µM): 0.27
relative viability ([1]; first compound 0.05 µM): 0.243
relative viability ([1]; first compound 0.1581 µM): 0.273
relative viability ([1]; first compound 0.5 µM): 0.263
relative viability ([2]; first compound 0.005 µM): 0.28
relative viability ([2]; first compound 0.05 µM): 0.313
relative viability ([2]; first compound 0.1581 µM): 0.204
relative viability ([2]; first compound 0.5 µM): 0.242
relative viability ([3]; first compound 0.005 µM): 0.532
relative viability ([3]; first compound 0.01581 µM): 0.705
relative viability ([3]; first compound 0.05 µM): 0.673
relative viability ([3]; first compound 0.1581 µM): 0.585
relative viability ([3]; first compound 0.5 µM): 0.609
relative viability ([4]; first compound 0.005 µM): 0.389
relative viability ([4]; first compound 0.01581 µM): 0.4
relative viability ([4]; first compound 0.05 µM): 0.366
relative viability ([4]; first compound 0.1581 µM): 0.299
relative viability ([4]; first compound 0.5 µM): 0.374
relative viability ([5]; first compound 0.005 µM): 0.238
relative viability ([5]; first compound 0.01581 µM): 0.164
relative viability ([5]; first compound 0.05 µM): 0.255
relative viability ([5]; first compound 0.1581 µM): 0.193
relative viability ([5]; first compound 0.5 µM): 0.224
relative viability ([6]; first compound 0.005 µM): 0.192
relative viability ([6]; first compound 0.01581 µM): 0.222
relative viability ([6]; first compound 0.05 µM): 0.15
relative viability ([6]; first compound 0.1581 µM): 0.193
relative viability ([6]; first compound 0.5 µM): 0.217
relative viability ([7]; first compound 0.005 µM): 0.363
relative viability ([7]; first compound 0.01581 µM): 0.419
relative viability ([7]; first compound 0.05 µM): 0.415
relative viability ([7]; first compound 0.1581 µM): 0.34
relative viability ([7]; first compound 0.5 µM): 0.356
relative viability ([8]; first compound 0.005 µM): 0.42
relative viability ([8]; first compound 0.01581 µM): 0.422
relative viability ([8]; first compound 0.05 µM): 0.432
relative viability ([8]; first compound 0.1581 µM): 0.414
relative viability ([8]; first compound 0.5 µM): 0.418
relative viability ([9]; first compound 0.005 µM): 0.596
relative viability ([9]; first compound 0.01581 µM): 0.666
relative viability ([9]; first compound 0.05 µM): 0.597
relative viability ([9]; first compound 0.1581 µM): 0.522
relative viability ([9]; first compound 0.5 µM): 0.595
relative viability ([10]; first compound 0.005 µM): 0.692
relative viability ([10]; first compound 0.01581 µM): 0.79
relative viability ([10]; first compound 0.05 µM): 0.713
relative viability ([10]; first compound 0.1581 µM): 0.769
relative viability ([10]; first compound 0.5 µM): 0.711
relative viability ([11]; first compound 0.005 µM): 0.384
relative viability ([11]; first compound 0.01581 µM): 0.32
relative viability ([11]; first compound 0.05 µM): 0.357
relative viability ([11]; first compound 0.1581 µM): 0.36
relative viability ([11]; first compound 0.5 µM): 0.244
relative viability ([12]; first compound 0.005 µM): 0.804
relative viability ([12]; first compound 0.01581 µM): 0.734
relative viability ([12]; first compound 0.05 µM): 0.811
relative viability ([12]; first compound 0.1581 µM): 0.772
relative viability ([12]; first compound 0.5 µM): 0.752
relative viability ([13]; first compound 0.005 µM): 0.817
relative viability ([13]; first compound 0.01581 µM): 0.906
relative viability ([13]; first compound 0.05 µM): 0.858
relative viability ([13]; first compound 0.1581 µM): 0.823
relative viability ([13]; first compound 0.5 µM): 0.749
relative viability ([14]; first compound 0.005 µM): 0.537
relative viability ([14]; first compound 0.01581 µM): 0.471
relative viability ([14]; first compound 0.05 µM): 0.558
relative viability ([14]; first compound 0.1581 µM): 0.543
relative viability ([14]; first compound 0.5 µM): 0.548
relative viability ([15]; first compound 0.005 µM): 0.505
relative viability ([15]; first compound 0.01581 µM): 0.516
relative viability ([15]; first compound 0.1581 µM): 0.614
relative viability ([15]; first compound 0.5 µM): 0.668
relative viability ([16]; first compound 0.005 µM): 0.48
relative viability ([16]; first compound 0.01581 µM): 0.579
relative viability ([16]; first compound 0.05 µM): 0.491
relative viability ([16]; first compound 0.1581 µM): 0.548
relative viability ([16]; first compound 0.5 µM): 0.532
relative viability ([17]; first compound 0.005 µM): 0.301
relative viability ([17]; first compound 0.01581 µM): 0.268
relative viability ([17]; first compound 0.05 µM): 0.292
relative viability ([17]; first compound 0.1581 µM): 0.27
relative viability ([17]; first compound 0.5 µM): 0.251
relative viability ([18]; first compound 0.005 µM): 0.355
relative viability ([18]; first compound 0.01581 µM): 0.344
relative viability ([18]; first compound 0.05 µM): 0.341
relative viability ([18]; first compound 0.1581 µM): 0.363
relative viability ([18]; first compound 0.5 µM): 0.358
relative viability ([19]; first compound 0.005 µM): 0.621
relative viability ([19]; first compound 0.01581 µM): 0.692
relative viability ([19]; first compound 0.1581 µM): 0.676
relative viability ([19]; first compound 0.5 µM): 0.646
relative viability ([20]; first compound 0.005 µM): 0.623
relative viability ([20]; first compound 0.01581 µM): 0.633
relative viability ([20]; first compound 0.05 µM): 0.7
relative viability ([20]; first compound 0.1581 µM): 0.553
relative viability ([20]; first compound 0.5 µM): 0.559
relative viability ([21]; first compound 0.005 µM): 0.326
relative viability ([21]; first compound 0.01581 µM): 0.324
relative viability ([21]; first compound 0.05 µM): 0.308
relative viability ([21]; first compound 0.1581 µM): 0.318
relative viability ([21]; first compound 0.5 µM): 0.298
relative viability ([22]; first compound 0.005 µM): 0.186
relative viability ([22]; first compound 0.01581 µM): 0.147
relative viability ([22]; first compound 0.05 µM): 0.173
relative viability ([22]; first compound 0.1581 µM): 0.176
relative viability ([22]; first compound 0.5 µM): 0.103
